Data as given in patent publication US20170143835A1, “SUBSTITUTED ANIONIC COMPOUNDS CONSISTING OF A BACKBONE MADE UP OF A DISCRETE NUMBER OF SACCHARIDE UNITS” (ADOCIA, priority 2012, published 2017).
Each block holds one substance with its values, some of them ahead of it.

Key:
serum albumin (BSA) = serum albumin (BSA) (Bos taurus, UniProt P02769); test: Fluorescence test for interaction with albumin; format: binding, bovine; conditions: for Result F/F0 <0.5: compound/BSA weight ratio 1, excitation 280 nm, emission 350 nm; for Result F/F0 <0.5 / Result F/F0 <0.85: BSA 0.5 mg/ml, PBS pH 7.4
Method: The test carried out is a “fluorescence” test with albumin, which makes it posible, by measuring the variations in fluorescence of albumin, to verify whether an interaction exists between the compound tested and albumin.
The compound/albumin solutions are prepared from stock solutions of compounds and of serum albumin (BSA) by mixing the appropriate volumes in order to obtain a fixed BSA concentration at 0.5 mg/ml and compound/BSA weight ratios of 1, 5 and 10. These solutions are prepared in a PBS buffer at pH 7.4.
200 μl of the various compound/BSA solutions are introduced into a 96-well plate. The fluorescence measurements are carried out at room temperature (20° C.) with an EnVision® fluorescence spectrometer (PerkinElmer). The excitation wavelength is 280 nm and the emission wavelength is 350 nm. This corresponds to the fluorescence of the tryptophan residues of albumin (Ruiz-Peña M. et al., M, A. Physico-chemical studies of molecular interactions between non-ionic surfactants and bovine serum albumin, Colloids Surf. B Biointerfaces 2010, 75, 282-289). The F (compound/BSA)/F0 (BSA alone) ratio makes it possible to evaluate the interaction between the compound and albumin. If this ratio is less than 1, this means that the compound induces partial quenching of the albumin fluorescence linked to a change in environment of the tryptophan residues. This change reflects an interaction between the compound and albumin. It was verified, as a control, that, for all the compounds tested, the fluorescence of the compound alone is negligible considering the fluorescence of albumin (fluorescence (compound) <2% fluorescence (albumin)).

lysozyme = biological target: T1, lysozyme (Gallus gallus, UniProt P00698); test: Turbidity measurement assays of compound/lysozyme solutions; format: physicochemical; conditions: for Turbidity of the solutions at the molar ratio 0.1: compound/lysozyme molar ratio 0.1; for Turbidity of the solutions at the molar ratio 0.1 / Turbidity of the solutions at the molar ratio 0.5: histidine buffer pH 6.2, NaCl, HACH 2100AN turbidity meter; for Turbidity of the solutions at the molar ratio 0.5: compound/lysozyme molar ratio 0.5; for turbidity of the compound/lysozyme solution compared with the counterexample/lysozyme solutions: whatever the ratio
T1 construct: purchased Sigma-Aldrich L6876
Method: The turbidity of solutions in which a “model” protein, lysozyme and either a compound according to the invention or a counterexample compound are brought together is analyzed in the compound/lysozyme molar ratios of 0, 0.1 and 0.5.
The following solutions are prepared beforehand: histidine buffer solution, pH 6.2±0.1, at 194 mM (30 mg/ml), sodium chloride (NaCl) solution at 5017 mM (293 mg/ml), solution of lysozyme (Sigma-Aldrich, Ref L6876, CAS#12650-88-3) at […] ([…]), and solutions of each of the test products (pH 6.2±0.1), i.e. compounds according to the invention and counterexamples.
For each of the solutions of compounds to be prepared, 3 ml of an aqueous solution of compound are adjusted to pH 6.2±0.1 using 50±25 μl of a 0.1N hydrochloric acid (HCl) solution.
The test solutions at the compound/lysozyme molar ratios: 0, 0.1 and 0.5 are then prepared as follows.
The sodium chloride (NaCl) solution at 5017 mM, the histidine buffer solution at 194 mM and then the solution of compound are successively added to water, which results in a mixture which is homogenized on a roller mixer (Stuart Roller Mixer SRT9D) for 1 minute.
The lysozyme solution is, finally, added and then the final mixture is homogenized on the roller mixer for 1 minute.
The turbidity (expressed in NTU) for each of the final test solutions is measured using a HACH 2100AN turbidity meter.
The turbidity of the compound 1/lysozyme solution is analyzed in comparison with that of the counterexample A1/lysozyme and counterexample A2/lysozyme solutions. The turbidity of the compound 13/lysozyme solution is analyzed in comparison with that of the counterexample B1/lysozyme and counterexample B2/lysozyme solutions.

T1 sequence (P00698 19-147): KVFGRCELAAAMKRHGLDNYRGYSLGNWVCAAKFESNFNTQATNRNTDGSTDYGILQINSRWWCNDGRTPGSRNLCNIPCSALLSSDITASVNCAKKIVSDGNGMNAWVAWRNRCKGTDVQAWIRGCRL
serum albumin (BSA), sequence (P02769 25-607): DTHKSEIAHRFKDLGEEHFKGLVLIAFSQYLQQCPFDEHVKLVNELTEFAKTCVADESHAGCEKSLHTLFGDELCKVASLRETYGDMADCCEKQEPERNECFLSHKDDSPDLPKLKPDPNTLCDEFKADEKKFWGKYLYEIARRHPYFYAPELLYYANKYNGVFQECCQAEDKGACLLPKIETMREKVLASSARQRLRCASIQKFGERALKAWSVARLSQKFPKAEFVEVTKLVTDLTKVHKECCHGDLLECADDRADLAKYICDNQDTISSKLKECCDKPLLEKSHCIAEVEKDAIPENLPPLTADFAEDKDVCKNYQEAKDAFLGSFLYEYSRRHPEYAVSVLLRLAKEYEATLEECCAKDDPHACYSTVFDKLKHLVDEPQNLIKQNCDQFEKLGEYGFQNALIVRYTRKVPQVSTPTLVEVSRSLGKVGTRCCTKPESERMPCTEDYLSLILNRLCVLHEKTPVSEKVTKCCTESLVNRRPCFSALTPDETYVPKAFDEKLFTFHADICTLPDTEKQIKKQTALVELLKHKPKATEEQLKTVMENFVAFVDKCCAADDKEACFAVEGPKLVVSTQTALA

Substance: Sodium maltotriosesuccinate Functionalized with dilauryl aspartate [Compound 22]
Result F/F0 <0.5 (serum albumin (BSA)): YES

Substance: Sodium maltotriosemethylcarboxylate Functionalized with 2-[(2octanoylamino-6-octanoylamino)hexanoylamino]ethanamine [Compound 27]
Result F/F0 <0.5 (serum albumin (BSA)): YES

Result F/F0 <0.5 (serum albumin (BSA)): YES
Substance: Sodium maltotriosemethylcarboxylate Functionalized with 2-aminoethyl dodecanoate [Compound 29]

Result F/F0 <0.5 (serum albumin (BSA)): YES
Substance: Sodium maltotriosemethylcarboxylate Functionalized with decanoyl glycinate [Compound 23]

Result F/F0 <0.5 (serum albumin (BSA)): YES
Substance: Sodium maltotriosemethylcarboxylate Functionalized with 2-[(2-dodecanoylamino-6-dodecanoylamino)hexanoylamino]ethanamine [Compound 20]

Turbidity of the solutions at the molar ratio 0.1 (lysozyme): 32 NTU
Turbidity of the solutions at the molar ratio 0.5 (lysozyme): 395 NTU
turbidity of the compound/lysozyme solution compared with the counterexample/lysozyme solutions (lysozyme): lower
Substance: Sodium maltotriosemethylcarboxylate Functionalized with cholesteryl leucinate [Compound 13]

Result F/F0 <0.85 (serum albumin (BSA); compound/BSA weight ratio 5): YES
Result F/F0 <0.85 (serum albumin (BSA); compound/BSA weight ratio 10): YES
fluorescence ratio F/F0 (serum albumin (BSA); compound/BSA weight ratio of 5): < 0.85
fluorescence ratio F/F0 (serum albumin (BSA); compound/BSA weight ratio of 10): < 0.85
Substance: Sodium maltotriosemethylcarboxylate Functionalized with L-phenylalanine [Compound 2]

Turbidity of the solutions at the molar ratio 0.1 (lysozyme): 55 NTU
Turbidity of the solutions at the molar ratio 0.5 (lysozyme): 4.8 NTU
turbidity of the compound/lysozyme solution compared with the counterexample/lysozyme solutions (lysozyme): lower
Substance: Sodium maltotriosemethylcarboxylate Functionalized with L-phenylalanine [Compound 1]

Result F/F0 <0.5 (serum albumin (BSA)): YES
Substance: Sodium maltotriosemethylcarboxylate Functionalized with 3,7-dimethyloctanoyl phenylalaninate [Compound 30]

Result F/F0 <0.5 (serum albumin (BSA)): YES
Substance: Sodium maltotriosemethylcarboxylate Functionalized with N-(2-aminoethyl)dodecanamide [Compound 21]
